Values joined by “and” are separate entries in the source; they are usually repeats but may differ in a detail not shown here. Equal values may be shown once. Toxic doses and inconclusive results are not listed. The calls were made as follows: active = survival T/C of 150% or more; inactive = T/C below 125% in these data.
System: P388 leukemia ip, CD2F1 mice, survival T/C
Assay: NCI In Vivo Anticancer Drug Screen. Data for tumor model P388 Leukemia (intraperitoneal) in CD2F1 (CDF1) mice
Conditions: endpoint: median survival time, higher = longer survival
In short: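 Mice carrying the transplanted tumor received test compound or vehicle. Survival was recorded in each group, and the value is the treated-group measurement divided by that of the vehicle-treated control group.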

[1] = dose: 50.0 mg/kg/injection, schedule: Q01DX009 (ip), vehicle: Klucel (hydroxypropylcellulose) (HPC)
[2] = dose: 100.0 mg/kg/injection, schedule: Q01DX009 (ip), vehicle: Klucel (hydroxypropylcellulose) (HPC)
[3] = dose: 200.0 mg/kg/injection, schedule: Q01DX009 (ip), vehicle: Klucel (hydroxypropylcellulose) (HPC)
[4] = dose: 100.0 mg/kg/injection, schedule: Q04DX002 (ip), vehicle: saline with Tween-80
[5] = dose: 200.0 mg/kg/injection, schedule: Q04DX002 (ip), vehicle: saline with Tween-80
[6] = dose: 400.0 mg/kg/injection, schedule: Q04DX002 (ip), vehicle: saline with Tween-80
[7] = dose: 100.0 mg/kg/injection, schedule: Q04DX003 (ip), vehicle: saline with Tween-80
[8] = dose: 50.0 mg/kg/injection, schedule: Q01DX005 (ip), vehicle: Klucel (hydroxypropylcellulose) (HPC)
[9] = dose: 100.0 mg/kg/injection, schedule: Q01DX005 (ip), vehicle: Klucel (hydroxypropylcellulose) (HPC)
[10] = dose: 200.0 mg/kg/injection, schedule: Q01DX005 (ip), vehicle: Klucel (hydroxypropylcellulose) (HPC)
[11] = dose: 50.0 mg/kg/injection, schedule: Q01DX009 (ip), vehicle: saline with Tween-80
[12] = dose: 50.0 mg/kg/injection, schedule: Q01DX009 (ip), vehicle: saline
[13] = dose: 100.0 mg/kg/injection, schedule: Q01DX009 (ip), vehicle: saline with Tween-80
[14] = dose: 100.0 mg/kg/injection, schedule: Q01DX009 (ip), vehicle: saline
[15] = dose: 200.0 mg/kg/injection, schedule: Q01DX009 (ip), vehicle: saline with Tween-80
[16] = dose: 200.0 mg/kg/injection, schedule: Q01DX009 (ip), vehicle: saline
[17] = dose: 50.0 mg/kg/injection, schedule: Q01DX005 (ip), vehicle: saline with Tween-80
[18] = dose: 200.0 mg/kg/injection, schedule: Q01DX005 (ip), vehicle: saline with Tween-80

Measured: T/C

CN(C)c1ccc(C=C2C(=O)CC(C)(C)CC2=O)cc1
inactive: dose: 25.0 mg/kg/injection, schedule: Q01DX009 (ip), vehicle: Klucel (hydroxypropylcellulose) (HPC) 106 % of control | [1] 97 % of control | [2] 92 % of control | [3] 93 % of control

OC1(C2CCCC2)C2C=CC1C1CCCCCCC12 (centres undefined)
inactive: [4] 100 % of control | [5] 100 % of control | [6] 97 % of control

C=C1C(=O)OC2/C=C(\C)C3OC3/C=C(/C(=O)OC)C(O)C(OC(=O)C3(C)OC3C)C12 (centres undefined)
inactive: dose: 3.0 mg/kg/injection, schedule: Q01DX009 (ip), vehicle: Klucel (hydroxypropylcellulose) (HPC) 115 % of control and 123 % of control | dose: 6.0 mg/kg/injection, schedule: Q01DX009 (ip), vehicle: Klucel (hydroxypropylcellulose) (HPC) 120 % of control and 123 % of control | dose: 12.0 mg/kg/injection, schedule: Q01DX009 (ip), vehicle: Klucel (hydroxypropylcellulose) (HPC) 119 % of control | dose: 24.0 mg/kg/injection, schedule: Q01DX009 (ip), vehicle: Klucel (hydroxypropylcellulose) (HPC) 94 % of control

CCc1nnc(NC(=S)NC(=O)OC)s1
inactive: dose: 25.0 mg/kg/injection, schedule: Q04DX003 (ip), vehicle: saline with Tween-80 100 % of control | dose: 50.0 mg/kg/injection, schedule: Q04DX003 (ip), vehicle: saline with Tween-80 105 % of control | [7] 105 % of control

CCCCN(Cc1c(O)ccc2ccccc12)Cc1c(O)ccc2ccccc12
inactive: [8] 95 % of control | [9] 97 % of control | [10] 94 % of control

O=C(CN1CCCCC1)Nc1ccc(Br)cc1
inactive: [11] 106 % of control | [12] 103 % of control and 113 % of control | [13] 100 % of control | [14] 105 % of control | [15] 111 % of control | [16] 120 % of control | dose: 400.0 mg/kg/injection, schedule: Q01DX009 (ip), vehicle: saline with Tween-80 102 % of control

Cc1cc(=NCCCN(C)C)c2ccc3c(ccc4c(=NCCCN(C)C)cc(C)n(O)c43)c2n1O
inactive: dose: 6.25 mg/kg/injection, schedule: Q01DX009 (ip), vehicle: water 106 % of control and 111 % of control | dose: 12.5 mg/kg/injection, schedule: Q01DX009 (ip), vehicle: distilled water + alcohol 102 % of control | dose: 12.5 mg/kg/injection, schedule: Q01DX009 (ip), vehicle: water 100 % of control and 103 % of control and 109 % of control | dose: 25.0 mg/kg/injection, schedule: Q01DX009 (ip), vehicle: distilled water + alcohol 102 % of control | dose: 25.0 mg/kg/injection, schedule: Q01DX009 (ip), vehicle: water 108 % of control and 116 % of control | dose: 50.0 mg/kg/injection, schedule: Q01DX009 (ip), vehicle: distilled water + alcohol 105 % of control

COC(=O)CCC(C)(c1ccc(O)cc1)c1ccc(O)cc1
inactive: [7] 104 % of control | dose: 200.0 mg/kg/injection, schedule: Q04DX003 (ip), vehicle: saline with Tween-80 90 % of control | dose: 400.0 mg/kg/injection, schedule: Q04DX003 (ip), vehicle: saline with Tween-80 90 % of control

C[C@H]1CN[C@@H]2[C@@H](C)[C@H]3[C@@H](C[C@H]4[C@@H]5CC[C@H]6C[C@@H](N)CC[C@]6(C)[C@H]5CC[C@]34C)O[C@@]2(O)C1
inactive: dose: 3.12 mg/kg/injection, schedule: Q01DX009 (ip), vehicle: saline 103 % of control | dose: 6.25 mg/kg/injection, schedule: Q01DX009 (ip), vehicle: saline 94 % of control | dose: 12.5 mg/kg/injection, schedule: Q01DX009 (ip), vehicle: saline 100 % of control | dose: 25.0 mg/kg/injection, schedule: Q01DX009 (ip), vehicle: saline 98 % of control

Cc1ccc(S(=O)(=O)OC2CCN(C)CC2)cc1
inactive: dose: 25.0 mg/kg/injection, schedule: Q04DX003 (ip), vehicle: saline 113 % of control | dose: 50.0 mg/kg/injection, schedule: Q04DX003 (ip), vehicle: saline 102 % of control | dose: 100.0 mg/kg/injection, schedule: Q04DX003 (ip), vehicle: saline 99 % of control | dose: 200.0 mg/kg/injection, schedule: Q04DX003 (ip), vehicle: saline 104 % of control

CCOP(=S)(O/C(=C/Cl)c1cc(Cl)c(Cl)cc1Cl)c1ccccc1 (centres undefined)
inactive: [1] 92 % of control | [2] 95 % of control | [3] 96 % of control

NNC(=O)c1cc2ccccc2cc1O
inactive: [11] 99 % of control | [13] 100 % of control | [15] 95 % of control

CP1(=O)CC2=C(CC2)C1
inactive: [12] 108 % of control | [14] 103 % of control | [16] 95 % of control

NC(=S)N/N=C\C(=N/NC(N)=S)c1cccc([N+](=O)[O-])c1
inactive: dose: 12.5 mg/kg/injection, schedule: Q01DX009 (ip), vehicle: saline with Tween-80 92 % of control | dose: 25.0 mg/kg/injection, schedule: Q01DX009 (ip), vehicle: saline with Tween-80 92 % of control | [11] 93 % of control and 96 % of control | [13] 96 % of control | [15] 96 % of control

CN(C)c1ccc(C2(c3ccccc3)NNC(=O)c3ccccc32)cc1 (centres undefined)
inactive: dose: 12.5 mg/kg/injection, schedule: Q01DX005 (ip), vehicle: saline with Tween-80 92 % of control | dose: 25.0 mg/kg/injection, schedule: Q01DX005 (ip), vehicle: saline with Tween-80 88 % of control | [17] 88 % of control | [18] 86 % of control

CC(C)CNC(=O)CNC(=O)C=[N+]=[N-]
inactive: [11] 104 % of control | [13] 104 % of control | [15] 104 % of control

COC1=CC(=O)C(=O)C(C(C)(C)C)=C1
inactive: dose: 15.0 mg/kg/injection, schedule: Q01DX005 (ip), vehicle: Klucel (hydroxypropylcellulose) (HPC) 104 % of control | dose: 30.0 mg/kg/injection, schedule: Q01DX005 (ip), vehicle: Klucel (hydroxypropylcellulose) (HPC) 86 % of control

COC1CC(O)C2OC(c3ccccc3)OCC2O1 (centres undefined)
inactive: dose: 100.0 mg/kg/injection, schedule: Q01DX001 (ip), vehicle: saline with Tween-80 101 % of control | dose: 200.0 mg/kg/injection, schedule: Q01DX001 (ip), vehicle: saline with Tween-80 105 % of control | dose: 400.0 mg/kg/injection, schedule: Q01DX001 (ip), vehicle: saline with Tween-80 99 % of control

C1CCc2nc3c(nc2C1)CCCC3
inactive: [17] 101 % of control | dose: 100.0 mg/kg/injection, schedule: Q01DX005 (ip), vehicle: saline with Tween-80 101 % of control | [18] 92 % of control

C1=CC2C1C1OC1C1OC21 (centres undefined)
inactive: [4] 101 % of control | [5] 100 % of control | [6] 101 % of control

CCCCCCCCCCCCC1C(=O)NCCNCCCNCCNC1=O
inactive: dose: 12.5 mg/kg/injection, schedule: Q01DX005 (ip), vehicle: saline 101 % of control | dose: 25.0 mg/kg/injection, schedule: Q01DX005 (ip), vehicle: saline 97 % of control | dose: 50.0 mg/kg/injection, schedule: Q01DX005 (ip), vehicle: saline 105 % of control

COC(=O)C(CCCCNC(=O)OCc1ccccc1)NC(=O)C(Cc1ccccc1)NC(=O)OC(C)(C)C (centres undefined)
inactive: [8] 99 % of control | [9] 97 % of control | [10] 99 % of control

From PubChem BioAssay AID330 (DTP/NCI, 2004)
